Data as given in patent US9624502B2, “Methods of controlling plant seed and organ size” (PLANT BIOSCIENCE LIMITED, priority 2007, dated 2017).
Where a SMILES comes first, the peptide text is derived from it. The star is where a group is joined. Cbz = O=C(OCc1ccccc1)*

Experiments:
[1] = system: wild type Col-0 seedlings; experiment: Seedling growth on MS medium with ABA, wild type; format: in vivo, Arabidopsis thaliana; settings: 4 d-old seedlings transferred to MS medium with 5 μm ABA for 3 weeks
Source text: (§1) (A) DA1 gene structure, showing the mutated sites of da1-1, sod1-1, sod1-2, and sod1-3 alleles. The start codon (ATG) and the stop codon (TGA) are indicated. Closed boxes indicate the coding sequence and lines between boxes indicate introns. T-DNA insertion sites (da1-ko1, da1-ko2 and da1-ko3) in DA1 gene are shown. (B to G) DA1 promoter activity monitored by pDA1::GUS transgene expression. GUS staining in seedlings (B and C), an embryo (D), roots (E), and petals (F and G). (H and I) The flowers of Col-0 (H) and da1-ko1dar1-1 double mutant (I). (J) Siliques of Col-0 (left) and da1-ko1dar1-1 double mutant (right). (K) Petal area of Col-0, da1-ko1, dar1-1, da1-ko1dar1-1 double mutants. […] 7 d-old WT seedlings were treated with 10 μm ABA for 2, 4, 6, 18 and 30 hours. (M and N) Wild type Col-0 and da1-1 seeds were grown on MS medium with 2 μm ABA under constant light conditions. […] Scale bars: 1 mm (B, H, I, M, and N), 50 μm (C and E), 0.5 mm (C and J), 0.1 mm (F and G), 0.5 cm (0).

DA1 gene = DA1 gene expression after phytohormone treatment, quantitative RT-PCR; format: in vivo, Arabidopsis thaliana
Source text: as §1
(§2) Relatively high levels of GUS activity were detected in proliferating tissues (FIG. 3c-f). In addition, the DA1 promoter is also active in roots (FIG. 3b, c). Given the effects of hormones on organ growth, we tested whether any major classes of phytohormones (abscisic acid, jasmonic acid, ethylene, auxin, cytokinin, gibberellin, brassinosteroids and glucose) could influence transcription of DA1 gene. […]

da1-1 mutant seedlings = experiment: Seedling establishment and growth on MS medium with ABA, da1-1 mutant; format: in vivo, Arabidopsis thaliana
Source text: as §1, §2

proteasome = experiment: Stability of DA1 protein in cell-free Arabidopsis protein extracts with ATP, Western analysis; format: biochemical; settings: GST-DA1 incubated with Arabidopsis protein extracts and ATP; Western with DA1 antibody
Experimental: This is supported by the observation that detection of DA1 protein with a good specific antibody in plant extracts is very difficult. We therefore tested the stability of DA1 protein in Arabidopsis using DA1 protein expressed in E. coli and cell-free protein extracts from Arabidopsis. Full length DA1 protein expressed and purified as an N-terminal GST fusion protein, was incubated with Arabidopsis protein extracts and ATP, and subjected to Western analysis using a specific DA1 antibody. […] The UIM motifs of DA1 are predicted, based on knowledge of UIM function in animal cells, to be involved in ubiqutination. It may be that DA1 is ubiquitinated and targeted for degradation as part of the mechanism of growth control.

Structure (SMILES) | growth of wild type Col-0 seedlings [1] | expression of DA1 (DA1 gene; 7 d-old WT seedlings treated with 10 μm ABA for 2, 4, 6, 18 and 30 hours, quantitative RT-PCR) | expression level of the DA1 gene (transcription) after phytohormone treatment (DA1 gene; major classes of phytohormones tested) | growth of da1-1 mutant seedlings (da1-1 mutant seedlings; 4 d-old seedlings transferred to MS medium with 5 μm ABA for 3 weeks) | seedling establishment of da1-1 mutant (da1-1 mutant seedlings; seeds grown on MS medium with 2 μm ABA under constant light) | effect on degradation of DA1 protein (proteasome)
CC1=CC(=O)CC(C)(C)[C@@]1(O)/C=C/C(C)=C\C(=O)O [ABA, abscisic acid] | inhibit the growth | slowly induced | induced slowly | continue to grow | ABA-insensitive seedling establishment | 
CC(C)C[C@@H](C=O)NC(=O)[C@H](CC(C)C)NC(=O)[C@H](CC(C)C)NC(=O)OCc1ccccc1 [MG132] (Cbz-Leu-Leu-Leu-aldehyde) |  |  |  |  |  | abolish this degradation
